The results in this text go back to patent US20260191998A1, “INDOLE PHTHALOCYANINE COMPOUND, PREPARATION METHOD THEREFOR, AND USE THEREOF IN TUMOR DIAGNOSIS IMAGING” (JIANGSU YAHONG MEDITECH CO., LTD., priority 2022, published 2026).

The series can be described thus: UV-VIS absorption spectra (optical property test). The series is classed as physicochemical. The following applies: 10 μM, DMSO solution; for Absorbance × 10^4: at maximum absorption peak. Here is the method: The UV-VIS absorption spectra of the compounds (10 μM, DMSO solution) were detected using Shimadzu UV2600 spectrophotometer, and the maximum absorption peak and absorbance of each compound were obtained.

Counter-ions that a name gives are not always drawn.

For `CC1(C)C(/C=C/C2=C(Cl)C(=C/C=C3/N(CCCCCC(=O)Nc4ccccc4)c4ccccc4C3(C)C)/CCC2)=[N+](CCCCS(=O)(=O)O)c2ccccc21` [Example 26, 2-((E)-2-((E)-2-chloro-3-(2-((E)-3,3-dimethyl-1l-(6-oxo-6-(phenylamino)hexyl)indolin-2-ylidene)ethenyl)cyclohex-1-en-1-yl)ethenyl)-3,3-dimethyl-1-(4-sulfonylbutyl)-3H-indo-1-ium Formate], the Absorption peak is on record as 797.5 nm and the “Absorbance × 10^4” value is listed as 2.44.
With `CC1(C)C(/C=C/C2=C(Cl)C(=C/C=C3/N(CCCCCC(=O)Nc4ccccc4)c4ccccc4C3(C)C)/CCC2)=[N+](CCCCCC(=O)O)c2ccccc21` [Example 27A, 1-(5-carboxypentyl)-2-((E)-2-((E)-2-chloro-3-(2-((E)-3,3-dimethyl-1-(6-oxo-6-(phenylamino)hexyl)indolin-2-ylidene)ethenyl)cyclohex-1-en-1-yl)ethenyl)-3,3-dimethyl-3H-indol-1-ium 2,2,2-trifluoroacetate], the Absorption peak stood at 796.5 nm and the “Absorbance × 10^4” value is recorded as 2.29.
Turning to `CC[N+]1=C(/C=C/C2=C(Cl)C(=C/C=C3/N(CCCCCC(=O)Oc4ccccc4)c4ccccc4C3(C)C)/C[N+](C)(C)C2)C(C)(C)c2ccccc21` [Example 28], the Absorption peak stood at 766 nm and the “Absorbance × 10^4” value came to 1.856.
Take `CC[N+]1=C(/C=C/C2=C(Cl)C(=C/C=C3/N(CCOCCCCCC(=O)Oc4ccccc4)c4ccccc4C3(C)C)/CCC2)C(C)(C)c2ccccc21` [Example 35, 2-((E)-2-((E)-2-chloro-3-(2-((E)-3,3-dimethyl-1-(2-((6-oxo-6-phenoxyhexyl)oxy)ethyl)indolin-2-ylidene)ethenyl)cyclohex-1-en-1-yl)ethenyl)-1-ethyl-3,3-dimethyl-3H-indol-1-ium 2,2,2-trifluoroacetate]: the Absorption peak stood at 794.5 nm and the “Absorbance × 10^4” value is 2.21.
Regarding `CC[N+]1=C(/C=C/C2=C(Cl)C(=C/C=C3/N(CCOCCCC(=O)Oc4ccccc4)c4ccccc4C3(C)C)/CCC2)C(C)(C)c2ccccc21` [Example 36, 2-((E)-2-((E)-2-chloro-3-(2-((E)-3,3-dimethyl-1-(2-(4-oxo-4-phenoxybutoxy)ethyl)indolin-2-ylidene)ethenyl)cyclohex-1-en-1-yl)ethenyl)-1-ethyl-3,3-dimethyl-3H-indol-1-ium 2,2,2-trifluoroacetate], the Absorption peak was 795.5 nm and the “Absorbance × 10^4” value is 3.368.
The corresponding values for `CC[N+]1=C(/C=C/C2=C(Cl)C(=C/C=C3/N(CCOCCCCC(=O)Oc4ccccc4)c4ccccc4C3(C)C)/CCC2)C(C)(C)c2ccccc21` [Example 37A, 2-((E)-2-((E)-2-chloro-3-(2-((E)-3,3-dimethyl-1-(2-((5-oxo-5-phenoxypentyl)oxy)ethyl)indolin-2-ylidene)ethenyl)cyclohex-1-en-1-yl)ethenyl)-1-ethyl-3,3-dimethyl-3H-indol-1-ium 2,2,2-trifluoroacetate] are 794.5 nm and 2.118.
On the same counts, the results for `CN1C(=O)/C(=C\C2=C(Cl)C(=C/C=C3/N(CCCCC(=O)Oc4ccccc4)c4ccccc4C3(C)C)/C[N+](C)(C)C2)c2ccccc21` [Example 38] are 584 nm and 0.364.
With `CC[N+]1=C(/C=C/C2=C(Cl)C(=C/C=C3/N(CCCCCC(=O)Oc4ccccc4)c4ccccc4C3(C)C)/CCC2)C(C)(C)c2cc(S(C)(=O)=O)ccc21` [Example 40, 2-((E)-2-((E)-2-chloro-3-(2-((E)-3,3-dimethyl-1-(6-oxo-6-phenoxyhexyl)indolin-2-ylidene)ethenyl)cyclohex-1-en-1-yl)ethenyl)-1-ethyl-3,3-dimethyl-5-(methylsulfonyl)-3H-indol-1-ium Chloride], the “Absorbance × 10^4” value turned out to be 0.93.
Still for that read-out and setting: to `COc1ccc2c(c1)C(C)(C)C(/C=C/C1=C(Cl)C(=C/C=C3/N(CCCCCC(=O)Oc4ccccc4)c4ccc(OC)cc4C3(C)C)/CCC1)=[N+]2C` [Example 47, 2-((E)-2-((E)-2-chloro-3-(2-((E)-5-methoxy-3,3-dimethyl-1-(6-oxo-6-phenoxyhexyl)indolin-2-ylidene)ethenyl)cyclohex-1-en-1-yl)ethenyl)-5-methoxy-1,3,3-trimethyl-3H-indol-1-ium] belongs 2.
For `CC1(C)C(/C=C/C2=C(Cl)C(=C/C=C3/N(CCCCCC(=O)Oc4ccccc4)c4ccccc4C3(C)C)/CCC2)=[N+](CCO)c2ccccc21` [Example 48, 2-((E)-2-((E)-2-chloro-3-(2-((E)-3,3-dimethyl-1-(6-oxo-6-phenoxyhexyl)indolin-2-ylidene)ethenyl)cyclohex-1-en-1-yl)ethenyl)-1-(2-hydroxyethyl)-3,3-dimethyl-3H-indol-1-ium Formate], the “Absorbance × 10^4” value was determined as 2.02.
In the case of `CC1(C)C(/C=C/C2=C(Cl)C(=C/C=C3/N(CCCCCC(=O)O)c4ccccc4C3(C)C)/CCC2)=[N+](CCO)c2ccccc21` [Example 49, 2-((E)-2-((E)-3-(2-((E)-1-(5-carboxypentyl)-3,3-dimethylindolin-2-ylidene)ethenyl)-2-chlorocyclohex-1-en-1-yl)ethenyl)-1-(2-hydroxyethyl)-3,3-dimethyl-3H-indol-1-ium Chloride], the “Absorbance × 10^4” value turned out to be 2.3.
For `CN(C)C1CC(/C=C/C2=[N+](C)c3ccccc3C2(C)C)=C(Cl)C(=C/C=C2/N(CCCCCC(=O)Oc3ccccc3)c3ccccc3C2(C)C)/C1` (stereo not drawn) [Example 50, 2-((E)-2-((E)-2-chloro-3-(2-((E)-3,3-dimethyl-1-(6-oxo-6-phenoxyhexyl)indolin-2-ylidene)ethenyl)-5-(dimethylamino)cyclohex-1-en-1-yl)ethenyl)-1,3,3-trimethyl-3H-indol-1-ium Formate], the “Absorbance × 10^4” value is reported as 1.97.
Still for that read-out and setting: to `C[N+]1=C(/C=C/C2=C(Cl)C(=C/C=C3/N(CCOCCOCCC(=O)Oc4ccccc4)c4ccccc4C3(C)C)/CCC2)C(C)(C)c2ccccc21` [Example 51, 2-((E)-2-((E)-2-chloro-3-(2-((E)-3,3-dimethyl-1-(2-(2-(3-oxo-3-phenoxypropoxy)ethoxy)ethyl)indolin-2-ylidene)ethenyl)cyclohex-1-en-1-yl)ethenyl)-1,3,3-trimethyl-3H-indol-1-ium Formate] belongs 1.9; to `C[N+]1=C(/C=C/C2=C(Cl)C(=C/C=C3/N(CCOCCC(=O)Oc4ccccc4)c4ccccc4C3(C)C)/CCC2)C(C)(C)c2ccccc21` [Example 52, 2-((E)-2-((E)-2-chloro-3-(2-((E)-3,3-dimethyl-1-(2-(3-oxo-3-phenoxypropoxy)ethyl)indolin-2-ylidene)ethenyl)cyclohex-1-en-1-yl)ethenyl)-1,3,3-trimethyl-3H-indol-1-ium Chloride], 2.14; to `C[n+]1cccc2c1N=C(/C=C/C1=C(Cl)C(=C/C=C3/N(CCCCCC(=O)Oc4ccccc4)c4ccccc4C3(C)C)/CCC1)C2(C)C` [Example 53, 2-((E)-2-((E)-2-chloro-3-(2-((E)-3,3-dimethyl-1-(6-oxo-6-phenoxyhexyl)indolin-2-ylidene)ethenyl)cyclohex-1-en-1-yl)ethenyl)-3,3,7-trimethyl-3H-pyrrolo[2,3-b]pyridin-7-ium 2,2,2-trifluoroacetate], 0.6.
The same measure, in the same setting: in the case of `CC[N+]1=C(/C=C/C2=C(Br)C(=C/C=C3/N(CCCCCC(=O)Oc4ccccc4)c4ccccc4C3(C)C)/CCC2)C(C)(C)c2ccccc21` [Example 54, 2-((E)-2-((E)-2-bromo-3-(2-((E)-3,3-dimethyl-1-(6-oxo-6-phenoxyhexyl)indolin-2-ylidene)ethenyl)cyclohex-1-en-1-yl)ethenyl)-1-ethyl-3,3-dimethyl-3H-indol-1-ium Formate] it was 2.57.
Regarding `C[N+]1=C(/C=C/C2=C(Cl)C(=C/C=C3/N(CCOCCOCCOCc4ccccc4)c4ccccc4C3(C)C)/CC2)C(C)(C)c2ccccc21` [Example 55, 2-((E)-2-((E)-3-(2-((E)-1-(2-(2-(2-(benzyloxy)ethoxy)ethoxy)ethyl)-3,3-dimethylindolin-2-ylidene)ethenyl)-2-chlorocyclopent-1-en-1-yl)ethenyl)-1,3,3-trimethyl-3H-indol-1-ium Formate], the “Absorbance × 10^4” value worked out at 3.48.
On the same count and under the same terms, in the case of `C[N+]1=C(/C=C/C2=C(Cl)C(=C/C=C3/N(CCOCCOCCOCc4ccccc4)c4ccccc4C3(C)C)/CCC2)C(C)(C)c2ccccc21` [Example 56, 2-((E)-2-((E)-3-(2-((E)-1-(2-(2-(2-(benzyloxy)ethoxy)ethoxy)ethyl)-3,3-dimethylindolin-2-ylidene)ethenyl)-2-chlorocyclohex-1-en-1-yl)ethenyl)-1,3,3-trimethyl-3H-indol-1-ium 2,2,2-trifluoroacetate] it was 1.85; in that of `C[n+]1cccc2c1N=C(/C=C/C1=C(Cl)C(=C/C=C3/N(CCCCCC(=O)O)c4ccccc4C3(C)C)/CC1)C2(C)C` [Example 63, 2-((E)-2-((E)-3-(2-((E)-1-(5-carboxypentyl)-3,3-dimethylindolin-2-ylidene)ethenyl)-2-chlorocyclopent-1-en-1-yl)ethenyl)-3,3,7-trimethyl-3H-pyrrolo[2,3-b]pyridin-7-ium Chloride], 0.31.
Same read-out and setting: in the case of `C[n+]1cccc2c1N=C(/C=C/C1=C(Cl)C(=C/C=C3/N(CCCCCC(=O)O)c4ccccc4C3(C)C)/CCC1)C2(C)C` [Example 64, 2-((E)-2-((E)-3-(2-((E)-1-(5-carboxypentyl)-3,3-dimethylindolin-2-ylidene)ethenyl)-2-chlorocyclohex-1-en-1-yl)ethenyl)-3,3,7-trimethyl-3H-pyrrolo[2,3-b]pyridin-7-ium Chloride] it was 0.5.
